The text below walks through data of the OligoGym collection.

HELM strings list units from the 5' end as sugar, base in round brackets, then linkage (d deoxyribose, r ribose, m 2'-O-methyl, p phosphodiester). Strings are as the collection lists them, not checked against the first reports. ss, as = sense and antisense strand; [lna] = locked nucleic acid (LNA); [s4r] = 4'-thioribose; [fl2r] = 2'-fluoro
Note: test system not given here.

The conditions of this data set: siRNA.
“RNA1{m(G)p.r(A)p.m(A)p.r(A)p.m(C)p.r(U)p.m(G)p.r(G)p.m(U)p.r(A)p.m(C)p.r(U)p.m(U)p.r(U)p.m(C)p.r(C)p.m(C)p.r(C)p.m(C)p.r(T)p.r(T)}|RNA2{r(G)p.r(G)p.r(G)p.r(G)p.r(G)p.r(A)p.r(A)p.r(A)p.r(G)p.r(U)p.r(A)p.r(C)p.r(C)p.r(A)p.r(G)p.r(U)p.r(U)p.r(U)p.r(C)p.r(T)p.r(T)}$$$RNA1{StrandType:ss}|RNA2{StrandType:as}$” registered a target mRNA knockdown of 57%. On to “RNA1{r(G)p.r(C)p.[fl2r](U)p.r(A)p.r(C)p.r(C)p.r(G)p.r(C)p.r(A)p.r(A)p.r(C)p.r(C)p.r(A)p.r(C)p.r(G)p.r(A)p.r(G)p.r(C)p.r(U)p.r(T)p.r(T)}|RNA2{r(A)p.r(G)p.r(C)p.r(U)p.r(C)p.r(G)p.r(U)p.r(G)p.r(G)p.r(U)p.r(U)p.r(G)p.r(C)p.r(G)p.r(G)p.[fl2r](U)p.r(A)p.r(G)p.r(C)p.r(T)p.r(T)}$$$RNA1{StrandType:ss}|RNA2{StrandType:as}$”, for which the target mRNA knockdown came to 45%. The result for “RNA1{[fl2r](U)p.r(A)p.[fl2r](A)p.r(C)p.[fl2r](C)p.r(C)p.[fl2r](C)p.r(A)p.[fl2r](A)p.r(G)p.[fl2r](A)p.r(A)p.[fl2r](C)p.r(G)p.[fl2r](G)p.r(G)p.[fl2r](C)p.r(U)p.[fl2r](U)p.r(T)p.r(T)}|RNA2{[fl2r](A)p.[fl2r](A)p.r(G)p.r(C)p.r(C)p.r(C)p.r(G)p.r(U)p.r(U)p.r(C)p.r(U)p.r(U)p.r(G)p.r(G)p.r(G)p.r(G)p.r(U)p.r(U)p.[fl2r](A)p.r(T)p.r(T)}$$$RNA1{StrandType:ss}|RNA2{StrandType:as}$” reads 47%; that for “RNA1{r(G)p.r(C)p.r(A)p.r(A)p.r(C)p.r(U)p.r(C)p.r(A)p.r(U)p.r(G)p.r(G)p.r(U)p.r(U)p.r(C)p.r(A)p.r(U)p.r(G)p.r(C)p.r(U)p.r(T)p.r(T)}|RNA2{r(A)p.r(G)p.r(C)p.r(A)p.r(U)p.r(G)p.r(A)p.r(A)p.r(C)p.r(C)p.r(A)p.r(U)p.r(G)p.r(A)p.r(G)p.r(U)p.r(U)p.r(G)p.r(C)p.d(T)p.d(T)}$$$RNA1{StrandType:ss}|RNA2{StrandType:as}$”, 40%. The result for “RNA1{r(C)p.r(G)p.r(U)p.r(A)p.r(C)p.r(G)p.r(C)p.r(G)p.r(G)p.r(A)p.r(A)p.r(U)p.r(A)p.r(C)p.r(U)p.r(U)p.r(C)p.r(G)p.r(A)p.r(T)p.r(T)}|RNA2{[s4r](U)p.[s4r](C)p.[s4r](G)p.[s4r](A)p.r(A)p.r(G)p.r(U)p.r(A)p.r(U)p.r(U)p.r(C)p.r(C)p.r(G)p.r(C)p.r(G)p.r(U)p.r(A)p.r(C)p.r(G)p.r(T)p.r(T)}$$$RNA1{StrandType:ss}|RNA2{StrandType:as}$” reads 76.7%. The same measure for “RNA1{r(A)p.r(A)p.r(A)p.r(G)p.r(G)p.r(G)p.r(G)p.r(A)p.r(G)p.r(U)p.m(U)p.r(G)p.r(C)p.m(U)p.r(G)p.r(G)p.r(A)p.r(A)p.r(G)p.r(T)p.r(T)}|RNA2{r(C)p.r(U)p.r(U)p.r(C)p.m(C)p.r(A)p.r(G)p.m(C)p.r(A)p.r(A)p.r(C)p.r(U)p.r(C)p.r(C)p.r(C)p.r(C)p.r(U)p.r(U)p.r(U)p.r(T)p.r(T)}$$$RNA1{StrandType:ss}|RNA2{StrandType:as}$”: 74%; for “RNA1{r(A)p.r(G)p.r(A)p.r(G)p.r(U)p.r(U)p.r(G)p.r(G)p.r(G)p.r(A)p.r(U)p.r(U)p.r(A)p.r(G)p.r(G)p.r(G)p.r(C)p.r(U)p.r(U)p.r(T)p.r(T)}|RNA2{r(A)p.r(A)p.r(G)p.r(C)p.r(C)p.r(C)p.m(U)p.r(A)p.r(A)p.r(U)p.r(C)p.r(C)p.r(C)p.r(A)p.r(A)p.r(C)p.r(U)p.r(C)p.r(U)p.r(T)p.r(T)}$$$RNA1{StrandType:ss}|RNA2{StrandType:as}$”: 69%. For “RNA1{r(C)p.r(C)p.r(G)p.r(A)p.r(A)p.r(G)p.r(A)p.r(C)p.r(G)p.r(A)p.r(A)p.r(G)p.r(C)p.r(U)p.r(A)p.r(U)p.r(G)p.r(A)p.r(A)p.r(T)p.r(T)}|RNA2{r(U)p.r(U)p.r(C)p.r(A)p.[fl2r](U)p.r(A)p.r(G)p.r(C)p.r(U)p.r(U)p.r(C)p.r(G)p.r(U)p.r(C)p.r(U)p.r(U)p.r(C)p.r(G)p.r(G)p.r(T)p.r(T)}$$$RNA1{StrandType:ss}|RNA2{StrandType:as}$”, the target mRNA knockdown came out at 47%.

For “RNA1{[fl2r](A)p.r(G)p.[fl2r](U)p.r(U)p.[fl2r](A)p.r(A)p.[fl2r](C)p.r(C)p.[fl2r](C)p.r(G)p.[fl2r](G)p.r(G)p.[fl2r](A)p.r(C)p.[fl2r](U)p.r(U)p.[fl2r](G)p.r(G)p.[fl2r](A)p.r(T)p.r(T)}|RNA2{r(U)p.r(C)p.r(C)p.r(A)p.r(A)p.r(G)p.r(U)p.r(C)p.r(C)p.r(C)p.r(G)p.r(G)p.r(G)p.r(U)p.r(U)p.r(A)p.r(A)p.r(C)p.r(U)p.r(T)p.r(T)}$$$RNA1{StrandType:ss}|RNA2{StrandType:as}$”, the target mRNA knockdown is 65%.

With “RNA1{r(C)p.r(U)p.r(U)p.r(A)p.r(C)p.r(G)p.r(C)p.r(U)p.r(G)p.r(A)p.r(G)p.r(U)p.r(A)p.r(C)p.r(U)p.r(U)p.r(C)p.r(G)p.r(A)p.d(T)p.d(T)}|RNA2{[lna](T)p.r(C)p.r(G)p.r(A)p.r(A)p.r(G)p.r(U)p.[lna](A)p.r(C)p.r(U)p.[lna](C)p.r(A)p.r(G)p.r(C)p.r(G)p.r(U)p.[lna](A)p.r(A)p.r(G)p.[lna](T)p.[lna](T)}$$$RNA1{StrandType:ss}|RNA2{StrandType:as}$”, the target mRNA knockdown turned out to be 15%. The same measure for “RNA1{r(A)p.r(C)p.r(G)p.r(U)p.m(C)p.r(A)p.r(C)p.r(C)p.r(G)p.r(A)p.r(G)p.r(G)p.r(A)p.r(G)p.r(A)p.r(A)p.r(G)p.m(U)p.m(A)p.r(T)p.r(T)}|RNA2{m(U)p.m(A)p.r(C)p.r(U)p.r(U)p.r(C)p.r(U)p.r(C)p.r(C)p.r(U)p.r(C)p.r(G)p.r(G)p.m(U)p.r(G)p.r(A)p.r(C)p.r(G)p.r(U)p.r(T)p.r(T)}$$$RNA1{StrandType:ss}|RNA2{StrandType:as}$”: 74%. On to “RNA1{[lna](G)p.r(C)p.r(A)p.r(G)p.r(C)p.r(A)p.r(C)p.r(G)p.r(A)p.r(C)p.r(U)p.r(U)p.r(C)p.r(U)p.r(U)p.r(C)p.r(A)p.r(A)p.r(G)p.r(U)p.r(U)}|RNA2{r(C)p.[fl2r](U)p.r(U)p.r(G)p.r(A)p.r(A)p.r(G)p.r(A)p.r(A)p.r(G)p.r(U)p.r(C)p.r(G)p.r(U)p.r(G)p.r(C)p.r(U)p.r(G)p.r(C)p.r(U)p.r(U)}$$$RNA1{StrandType:ss}|RNA2{StrandType:as}$”, for which the target mRNA knockdown was 69.3%. The result for “RNA1{r(A)p.r(A)p.r(C)p.r(C)p.r(C)p.r(A)p.r(C)p.r(C)p.r(A)p.r(C)p.r(A)p.r(G)p.r(C)p.m(U)p.m(A)p.r(G)p.r(A)p.r(A)p.r(C)p.m(U)p.m(U)}|RNA2{r(A)p.r(A)p.r(G)p.m(U)p.m(U)p.r(C)p.m(U)p.m(A)p.r(G)p.r(C)p.m(U)p.r(G)p.m(U)p.r(G)p.r(G)p.m(U)p.r(G)p.r(G)p.r(G)p.m(U)p.m(U)}$$$RNA1{StrandType:ss}|RNA2{StrandType:as}$” reads 24%. The result for “RNA1{r(G)p.r(U)p.r(A)p.r(U)p.r(U)p.r(G)p.r(A)p.r(C)p.r(A)p.r(G)p.r(C)p.r(U)p.r(A)p.r(U)p.r(U)p.r(C)p.r(G)p.r(A)p.r(A)p.d(T)p.d(T)}|RNA2{r(U)p.r(U)p.r(C)p.r(G)p.r(A)p.r(A)p.r(U)p.r(A)p.r(G)p.r(C)p.r(U)p.r(G)p.r(U)p.r(C)p.r(A)p.r(A)p.r(U)p.r(A)p.r(C)p.d(T)p.d(T)}$$$RNA1{StrandType:ss}|RNA2{StrandType:as}$” reads 73%; that for “RNA1{r(G)p.r(U)p.r(A)p.r(U)p.r(C)p.r(C)p.r(G)p.r(A)p.r(A)p.r(G)p.r(A)p.r(C)p.r(G)p.r(A)p.r(A)p.r(G)p.r(C)p.m(U)p.r(A)p.r(T)p.r(T)}|RNA2{m(U)p.r(A)p.r(G)p.r(C)p.r(U)p.r(U)p.r(C)p.r(G)p.r(U)p.r(C)p.r(U)p.r(U)p.r(C)p.r(G)p.r(G)p.r(A)p.m(U)p.r(A)p.r(C)p.r(T)p.r(T)}$$$RNA1{StrandType:ss}|RNA2{StrandType:as}$”, 95%; that for “RNA1{m(G)p.m(C)p.m(A)p.m(G)p.m(C)p.m(A)p.m(C)p.m(G)p.m(A)p.m(C)p.m(U)p.m(U)p.m(C)p.m(U)p.m(U)p.m(C)p.m(A)p.m(A)p.m(G)p.r(T)p.r(T)}|RNA2{m(C)p.m(U)p.m(U)p.m(G)p.m(A)p.m(A)p.m(G)p.m(A)p.m(A)p.m(G)p.m(U)p.m(C)p.m(G)p.m(U)p.m(G)p.m(C)p.m(U)p.m(G)p.m(C)p.r(T)p.r(T)}$$$RNA1{StrandType:ss}|RNA2{StrandType:as}$”, 0%. Substance “RNA1{r(U)p.r(C)p.m(U)p.r(A)p.r(C)p.r(A)p.r(C)p.r(C)p.r(G)p.r(C)p.r(G)p.r(C)p.r(C)p.r(C)p.r(C)p.r(C)p.r(C)p.r(U)p.r(C)p.r(T)p.r(T)}|RNA2{r(G)p.r(A)p.r(G)p.r(G)p.r(G)p.r(G)p.r(G)p.r(G)p.r(C)p.r(G)p.r(C)p.r(G)p.r(G)p.r(U)p.r(G)p.m(U)p.r(A)p.r(G)p.r(A)p.r(T)p.r(T)}$$$RNA1{StrandType:ss}|RNA2{StrandType:as}$” came in with a target mRNA knockdown of 79%.

For “RNA1{[fl2r](C)p.r(U)p.[fl2r](A)p.r(G)p.[fl2r](A)p.r(G)p.[fl2r](G)p.r(A)p.[fl2r](U)p.r(C)p.[fl2r](U)p.r(U)p.[fl2r](G)p.r(A)p.[fl2r](A)p.r(G)p.[fl2r](A)p.r(C)p.[fl2r](C)p.r(T)p.r(T)}|RNA2{[fl2r](G)p.[fl2r](G)p.r(U)p.r(C)p.r(U)p.r(U)p.r(C)p.r(A)p.r(A)p.[fl2r](G)p.r(A)p.r(U)p.r(C)p.r(C)p.r(U)p.r(C)p.r(U)p.r(A)p.[fl2r](G)p.r(T)p.r(T)}$$$RNA1{StrandType:ss}|RNA2{StrandType:as}$”, the target mRNA knockdown turned out to be 38%.

As to “RNA1{m(C)p.r(U)p.m(A)p.r(C)p.m(C)p.r(U)p.m(U)p.r(C)p.m(U)p.r(C)p.m(C)p.r(U)p.m(C)p.r(U)p.m(U)p.r(C)p.m(U)p.r(C)p.m(C)p.r(T)p.r(T)}|RNA2{r(G)p.r(G)p.r(A)p.r(G)p.r(A)p.r(A)p.r(G)p.r(A)p.r(G)p.r(G)p.r(A)p.r(G)p.r(A)p.r(A)p.r(G)p.r(G)p.r(U)p.r(A)p.r(G)p.r(T)p.r(T)}$$$RNA1{StrandType:ss}|RNA2{StrandType:as}$”, the target mRNA knockdown worked out at 27%.
